According to patent US9597407B2, “Targeted antimicrobial moieties” (C3 Jian, Inc., priority 2009, dated 2017):
“Also recorded” adds a separate entry of the source. Ends that are not written are not given here.

Experiments:
bacteria = assay: Binding of targeting peptides to microorganisms (Table 3); conditions: preferably 1x PBS; for Target(s) (microorganisms bound by the targeting peptide) / Target(s) (microorganism bound by the targeting peptide): peptide binding in aqueous buffers that varied depending on peptide solubility
microorganisms = assay: Morphology, biofilm and growth disruption by peptides (Table 5); type: cell-based; parameters: key: A: Peptide aggregates; B: Less hyphal formation; Clumps; Diffuse clumps and small polyps; F: Diffuse growth; H: Thin; I: Growth inhibition; Microcolony formation; Rippled; Small polyps; Thick; W: Halo formation on top, microlonies on bottom
Source text: In certain embodiments peptides that induce alterations in phenotype or other biological activities can also be used as antimicrobial effector moieties.

[1] = microorganism bound by the targeting peptide, binding in aqueous buffers chosen by peptide solubility

PF-414 (LLNKKLE; Peptide with targeting and/or antimicrobial activity)
Target(s) (microorganisms bound by the targeting peptide) (bacteria): E. coli; also recorded: C. albicans; also recorded: C. jeikeium | Organism, effect (microorganisms; S. pneumoniae): S. pneumoniae (H)

PF-401 (YWLSRVTTGHSFAFEKPVPLSLTIK; Peptide with targeting and/or antimicrobial activity)
Target(s) (microorganisms bound by the targeting peptide) (bacteria): S. epidermidis and E. coli and P. aeruginosa and MRSA and E. faecalis and C. jejuni | Organism, effect (microorganisms; E. coli): E. coli (R) | Organism, effect (microorganisms; E. faecalis): E. faecalis (C) | Organism, effect (microorganisms; MRSA): MRSA (C) | Organism, effect (microorganisms; S. epidermidis): S. epidermidis (C)

PF-C055 (YNLSIYIYFLHTITIAGLITLPFII; Peptide with targeting and/or antimicrobial activity)
Target(s) (microorganism bound by the targeting peptide) (bacteria): A. naeslundii; also recorded: F. nucleatum; also recorded: P. gingivalis; also recorded: S. mutans | Organism, effect (morphology, biofilm and growth disruption) (microorganisms; F. nucleatum): F. nucleatum (T) | Organism, effect (morphology, biofilm and growth disruption) (microorganisms; S. mutans): S. mutans (I)

PF-697 (chain 1 RADARAK; chain 2 RADARAK; Peptide with targeting and/or antimicrobial activity)
Target(s) (microorganism bound by the targeting peptide) (bacteria): Mycobacteria spp | Organism, effect (morphology, biofilm and growth disruption) (microorganisms; C. albicans): C. albicans (H) | Organism, effect (morphology, biofilm and growth disruption) (microorganisms; S. pneumoniae): S. pneumoniae (H)

LMFFSENMDKRDTLSGKFRYFAGSKVIKLMNWLSENGK [PF-226]
Target(s) (bacteria; [1]): A. baumannii | Organism, effect (microorganisms; M. luteus): M. luteus (T) | Organism, effect (microorganisms; S. epidermidis): S. epidermidis (C)

PF-C145 (YGKESDP; Peptide with targeting and/or antimicrobial activity)
Target(s) (microorganism bound by the targeting peptide) (bacteria): A. naeslundii; also recorded: F. nucleatum; also recorded: P. gingivalis; also recorded: S. mutans; also recorded: T. denticola | Organism, effect (morphology, biofilm and growth disruption) (microorganisms; F. nucleatum): F. nucleatum (C) | Organism, effect (morphology, biofilm and growth disruption) (microorganisms; S. mutans): S. mutans (I)

PF-663 (chain 1 ATLIPRKA; chain 2 ATLIPRKA; Peptide with targeting and/or antimicrobial activity)
Target(s) (microorganism bound by the targeting peptide) (bacteria): Mycobacteria spp | Organism, effect (morphology, biofilm and growth disruption) (microorganisms; S. pneumoniae): S. pneumoniae (A)

PF-204 (ALQKQDMNLPSVKNQLVFLKSTG; Peptide with targeting and/or antimicrobial activity)
Target(s) (bacteria; [1]): S. epidermidis; also recorded: P. mirabilis; also recorded: E. coli; also recorded: P. aeruginosa; also recorded: C. albicans; also recorded: C. jejuni | Organism, effect (microorganisms; C. jeikeium): C. jeikeium (D) | Organism, effect (microorganisms; M. luteus): M. luteus (C) | Organism, effect (microorganisms; P. aeruginosa): P. aeruginosa (H) | Organism, effect (microorganisms; S. epidermidis): S. epidermidis (C)

PF-590 (YYQAKLFPLL; Peptide with targeting and/or antimicrobial activity)
Target(s) (microorganisms bound by the targeting peptide) (bacteria): S. epidermidis; also recorded: M. luteus; also recorded: E. coli; also recorded: E. faecalis; also recorded: C. jeikeium | Organism, effect (morphology, biofilm and growth disruption) (microorganisms; C. jejuni): C. jejuni (R)

PF-683 (chain 1 LWPVA; chain 2 LWPVA; Peptide with targeting and/or antimicrobial activity)
Target(s) (microorganism bound by the targeting peptide) (bacteria): Mycobacteria spp | Organism, effect (morphology, biofilm and growth disruption) (microorganisms; MRSA): MRSA (R) | Organism, effect (morphology, biofilm and growth disruption) (microorganisms; S. epidermidis): S. epidermidis (R) | Organism, effect (morphology, biofilm and growth disruption) (microorganisms; S. pneumoniae): S. pneumoniae (H)

PF-698 (chain 1 SSGRAGVKCRRPTGR; chain 2 SSGRAGVKCRRPTGR; Peptide with targeting and/or antimicrobial activity)
Target(s) (microorganism bound by the targeting peptide) (bacteria): Mycobacteria spp | Organism, effect (morphology, biofilm and growth disruption) (microorganisms; C. albicans): C. albicans (H) | Organism, effect (morphology, biofilm and growth disruption) (microorganisms; E. faecalis): E. faecalis (A) | Organism, effect (morphology, biofilm and growth disruption) (microorganisms; S. pneumoniae): S. pneumoniae (A)

PF-668 (chain 1 TNAESMALAFRGRVHMSVNIAGLT; chain 2 TNAESMALAFRGRVHMSVNIAGLT; Peptide with targeting and/or antimicrobial activity)
Target(s) (microorganism bound by the targeting peptide) (bacteria): Mycobacteria spp | Organism, effect (morphology, biofilm and growth disruption) (microorganisms; B. subtilis): B. subtilis (A) | Organism, effect (morphology, biofilm and growth disruption) (microorganisms; C. albicans): C. albicans (A) | Organism, effect (morphology, biofilm and growth disruption) (microorganisms; C. jeikeium): C. jeikeium (D) | Organism, effect (morphology, biofilm and growth disruption) (microorganisms; E. faecalis): E. faecalis (D) | Organism, effect (morphology, biofilm and growth disruption) (microorganisms; MRSA): MRSA (R) | Organism, effect (morphology, biofilm and growth disruption) (microorganisms; S. epidermidis): S. epidermidis (M) | Organism, effect (morphology, biofilm and growth disruption) (microorganisms; S. pneumoniae): S. pneumoniae (M)

PF-700 (chain 1 LNWPFTGR; chain 2 LNWPFTGR; Peptide with targeting and/or antimicrobial activity)
Target(s) (microorganism bound by the targeting peptide) (bacteria): Mycobacteria spp | Organism, effect (morphology, biofilm and growth disruption) (microorganisms; S. pneumoniae): S. pneumoniae (C)

PF-C291 (HPFLTGTGCPLFLIFRLFFVKAYFSFTVF; Peptide with targeting and/or antimicrobial activity)
Target(s) (microorganism bound by the targeting peptide) (bacteria): A. naeslundii; also recorded: F. nucleatum; also recorded: P. gingivalis; also recorded: S. mutans | Organism, effect (morphology, biofilm and growth disruption) (microorganisms; F. nucleatum): F. nucleatum (T) | Organism, effect (morphology, biofilm and growth disruption) (microorganisms; S. mutans): S. mutans (F)

RESKLIAMADMIRRRI-NH2 [PF-545]
Target(s) (microorganisms bound by the targeting peptide) (bacteria): S. epidermidis; also recorded: E. coli; also recorded: P. aeruginosa; also recorded: S. pneumoniae; also recorded: E. faecalis; also recorded: C. jeikeium | Organism, effect (morphology, biofilm and growth disruption) (microorganisms; B. subtilis): B. subtilis (I) | Organism, effect (morphology, biofilm and growth disruption) (microorganisms; C. albicans): C. albicans (B) | Organism, effect (morphology, biofilm and growth disruption) (microorganisms; C. jeikeium): C. jeikeium (H) | Organism, effect (morphology, biofilm and growth disruption) (microorganisms; E. faecalis): E. faecalis (H)

PF-002 (chain 1 NDDAQ; chain 2 NDDAQ; Peptide with targeting and/or antimicrobial activity)
Target(s) (bacteria; microorganism the targeting peptide binds, binding in aqueous buffers that varied with peptide solubility): S. epidermidis; also recorded: P. mirabilis; also recorded: C. albicans; also recorded: C. jeikeium; also recorded: C. jejuni | Organism, effect (microorganisms; B. subtilis): B. subtilis (R) | Organism, effect (microorganisms; S. pneumoniae): S. pneumoniae (H)

PF-C057 (YFWWYWVQDCIPYKNNEVWLELSNNMK; Peptide with targeting and/or antimicrobial activity)
Target(s) (microorganism bound by the targeting peptide) (bacteria): A. naeslundii; also recorded: F. nucleatum; also recorded: P. gingivalis; also recorded: S. mutans | Organism, effect (morphology, biofilm and growth disruption) (microorganisms; S. mutans): S. mutans (I)

PF-675 (chain 1 EIIPISPTRRCEMHTMSSAEYRGL; chain 2 EIIPISPTRRCEMHTMSSAEYRGL; Peptide with targeting and/or antimicrobial activity)
Target(s) (microorganism bound by the targeting peptide) (bacteria): Mycobacteria spp | Organism, effect (morphology, biofilm and growth disruption) (microorganisms; E. faecalis): E. faecalis (R) | Organism, effect (morphology, biofilm and growth disruption) (microorganisms; S. pneumoniae): S. pneumoniae (C)

PF-661 (chain 1 PDEDIRRRAILPPAGPCRPMSPE; chain 2 PDEDIRRRAILPPAGPCRPMSPE; Peptide with targeting and/or antimicrobial activity)
Target(s) (microorganism bound by the targeting peptide) (bacteria): Mycobacteria spp | Organism, effect (morphology, biofilm and growth disruption) (microorganisms; MRSA): MRSA (R)

PF-644 (chain 1 TSGLIIGENGLNGL; chain 2 TSGLIIGENGLNGL; Peptide with targeting and/or antimicrobial activity)
Target(s) (microorganism bound by the targeting peptide) (bacteria): Mycobacteria spp | Organism, effect (morphology, biofilm and growth disruption) (microorganisms; S. pneumoniae): S. pneumoniae (H)

PF-694 (chain 1 DLIRPLYSMSAPSVA; chain 2 DLIRPLYSMSAPSVA; Peptide with targeting and/or antimicrobial activity)
Target(s) (microorganism bound by the targeting peptide) (bacteria): Mycobacteria spp | Organism, effect (morphology, biofilm and growth disruption) (microorganisms; MRSA): MRSA (R) | Organism, effect (morphology, biofilm and growth disruption) (microorganisms; S. pneumoniae): S. pneumoniae (A)

PF-191 (QFCNFAWLFLASNNAQVSALA; Peptide with targeting and/or antimicrobial activity)
Target(s) (bacteria; [1]): E. coli; also recorded: P. aeruginosa; also recorded: C. jejuni | Organism, effect (microorganisms; C. jeikeium): C. jeikeium (R) | Organism, effect (microorganisms; MRSA): MRSA (H) | Organism, effect (microorganisms; S. epidermidis): S. epidermidis (A)

PF-602 (LEKEKKEYIEKLFKTK; Peptide with targeting and/or antimicrobial activity)
Target(s) (microorganism bound by the targeting peptide) (bacteria): P. mirabilis; also recorded: C. jeikeium | Organism, effect (morphology, biofilm and growth disruption) (microorganisms; E. faecalis): E. faecalis (A)

PF-655 (chain 1 DAPCFDDQFGDLKCQMC; chain 2 DAPCFDDQFGDLKCQMC; Peptide with targeting and/or antimicrobial activity)
Target(s) (microorganism bound by the targeting peptide) (bacteria): M. smegmatis | Organism, effect (morphology, biofilm and growth disruption) (microorganisms; B. subtilis): B. subtilis (H) | Organism, effect (morphology, biofilm and growth disruption) (microorganisms; MRSA): MRSA (M) | Organism, effect (morphology, biofilm and growth disruption) (microorganisms; S. epidermidis): S. epidermidis (R) | Organism, effect (morphology, biofilm and growth disruption) (microorganisms; S. pneumoniae): S. pneumoniae (H)

PF-C064 (DEEALEMGANLYAQFAIDFLNSKK; Peptide with targeting and/or antimicrobial activity)
Target(s) (microorganism bound by the targeting peptide) (bacteria): A. naeslundii; also recorded: F. nucleatum; also recorded: P. gingivalis; also recorded: S. mutans; also recorded: T. denticola | Organism, effect (morphology, biofilm and growth disruption) (microorganisms; F. nucleatum): F. nucleatum (T)

PF-629 (chain 1 GLAAIATVFALY; chain 2 GLAAIATVFALY; Peptide with targeting and/or antimicrobial activity)
Target(s) (microorganism bound by the targeting peptide) (bacteria): S. epidermidis and P. aeruginosa and C. albicans and MRSA and S. pneumoniae and E. faecalis and C. jeikeium | Organism, effect (morphology, biofilm and growth disruption) (microorganisms; C. jeikeium): C. jeikeium (R) | Organism, effect (morphology, biofilm and growth disruption) (microorganisms; E. faecalis): E. faecalis (R) | Organism, effect (morphology, biofilm and growth disruption) (microorganisms; MRSA): MRSA (D) | Organism, effect (morphology, biofilm and growth disruption) (microorganisms; S. epidermidis): S. epidermidis (C) | Organism, effect (morphology, biofilm and growth disruption) (microorganisms; S. pneumoniae): S. pneumoniae (M)

PF-224 (DYFYITLSQKNTF; Peptide with targeting and/or antimicrobial activity)
Target(s) (bacteria; [1]): S. epidermidis; also recorded: P. aeruginosa; also recorded: A. baumannii | Organism, effect (microorganisms; M. luteus): M. luteus (T)
